Columns and labels:
Rattus norvegicus [1] = assay: Inhibition of sorbitol accumulation in the lens in diabetic rats at peroral dose of 30 mg/kg (curative effect); type: functional; conditions: Lens of camera-type eye, route oral
Rattus norvegicus [2] = assay: Inhibition of sorbitol accumulation in the sciatic nerve in diabetic rats at peroral dose of 30 mg/kg (curative effect); type: functional; conditions: route oral
[3] = target: Aldo-keto reductase family 1 member B1 (Sus scrofa) (UniProt P80276); assay: In vitro percent inhibition of porcine lens aldose reductase (AR) at 10e -7 M with DL-glyceraldehyde as the substrate
Rattus norvegicus [4] = assay: Percent inhibition of sorbitol accumulation in the lens of streptozotocin (STZ)-induced diabetic rats at peroral dose of 30 mg/kg (preventive effect); type: functional; conditions: Lens of camera-type eye, route oral
Rattus norvegicus [5] = assay: Percent inhibition of sorbitol accumulation in the sciatic nerve of streptozotocin (STZ)- induced diabetic rats at peroral dose of 30 mg/kg (preventive effect); type: functional; conditions: route oral
[6] = target: Aldo-keto reductase family 1 member B1 (Sus scrofa, UniProt P80276); assay: Inhibitory concentration against porcine lens aldose reductase (AR) with DL-glyceraldehyde as the substrate
Rattus norvegicus [7] = assay: Percent inhibition of sorbitol accumulation in the sciatic nerve of streptozotocin (STZ)- induced diabetic rats at peroral dose of 30 mg/kg (curative effect); type: functional; conditions: route oral
Rattus norvegicus [8] = assay: Percent inhibition of sorbitol accumulation in the lens of streptozotocin (STZ)-induced diabetic rats at peroral dose of 30 mg/kg (curative effect); type: functional; conditions: Lens of camera-type eye, route oral

| SMILES | ED50 (Rattus norvegicus [1]) [mg/kg] | ED50 (Rattus norvegicus [2]) [mg/kg] | inhibition in vivo at 30 mg/kg (Rattus norvegicus [4]) [%] | inhibition in vivo at 30 mg/kg (Rattus norvegicus [5]) [%] | IC50 [6] [nM] | other results |
| --- | --- | --- | --- | --- | --- | --- |
| O=C(O)Cc1cc(Cc2nc3c(F)c(F)cc(F)c3s2)cc(C(=O)O)c1 | > 10 | > 10 |  |  |  |  |
| Cc1cc(CC(=O)O)cc(Cc2nc3c(F)c(F)cc(F)c3s2)c1 | 1.6 | 0.25 |  |  |  |  |
| O=C(O)CCCc1nc2c(F)c(F)cc(F)c2s1 |  |  |  |  |  | inhibition [3]: 1% |
| O=C(O)CN(C(=S)CCc1nc2c(F)c(F)cc(F)c2s1)c1ccccc1 |  |  | 12 | < 64 |  |  |
| O=C(O)CCCCCc1nc2c(F)c(F)cc(F)c2s1 |  |  |  |  | 50 | inhibition [3]: 71% |
| O=C(O)CCCCCCc1nc2c(F)c(F)cc(F)c2s1 |  |  |  |  |  | inhibition [3]: 11% |
| CN(C)c1cc(CC(=O)O)cc(Cc2nc3c(F)c(F)cc(F)c3s2)c1.Cl | > 10 | 0.53 |  |  | 12 |  |
| O=C(O)Cn1c(=O)n(Cc2ccc(Br)cc2F)c(=O)c2ccc(Cl)cc21 [ZENARESTAT] |  |  | 30 | 89 | 12 | inhibition in vivo at 30 mg/kg (Rattus norvegicus [7]): 76%; inhibition in vivo at 30 mg/kg (Rattus norvegicus [8]): 21% |
| O=C(O)Cc1cc(I)cc(Cc2nc3c(F)c(F)cc(F)c3s2)c1 | > 10 | > 10 |  |  | 11 |  |
| O=C(O)Cc1ccc(Cc2nc3c(F)c(F)cc(F)c3s2)cc1 |  |  |  |  | 38 |  |
| O=C(O)Cc1cc(F)cc(Cc2nc3c(F)c(F)cc(F)c3s2)c1 | 10 | 0.32 |  |  | 8.8 |  |
| CN(CC(=O)O)C(=O)CCc1nc2c(F)c(F)cc(F)c2s1 |  |  | 30 | 61 |  |  |
| O=C(O)Cc1cc(Br)cc(Cc2nc3c(F)c(F)cc(F)c3s2)c1 | 9.8 | 0.68 |  |  |  |  |
| O=C(O)CN(Cc1ccccc1)C(=S)CCc1nc2c(F)c(F)cc(F)c2s1 |  |  | 23 | 65 |  |  |
| O=C(O)CC1Sc2ccccc2N(Cc2nc3c(F)c(F)cc(F)c3s2)C1=O (stereo not drawn) | > 10 | 1.8 |  |  |  |  |
| CN(CC(=O)O)C(=S)CCc1nc2c(F)c(F)cc(F)c2s1 |  |  | 58 | 48 |  |  |
| O=C(O)CN(Cc1ccccc1)C(=O)CCc1nc2c(F)c(F)cc(F)c2s1 |  |  | 54 | 75 |  |  |
| O=C(O)Cc1cccc(Cc2nc3c(F)c(F)cc(F)c3s2)c1 | > 10 | 1.5 |  |  |  |  |
| O=C(O)Cc1cccc(Cc2nc3c(F)c(F)cc(F)c3s2)c1Cl | 0.71 | 0.12 |  |  | 9.3 |  |
| COc1ccc2c(C(=S)N(C)CC(=O)O)cccc2c1C(F)(F)F [TOLRESTAT] |  |  | 36 | 84 | 16 |  |
| O=C(O)CCCCc1nc2c(F)c(F)cc(F)c2s1 |  |  |  |  |  | inhibition [3]: 35% |
| O=C(O)CN(CCc1ccccc1)C(=O)CCc1nc2c(F)c(F)cc(F)c2s1 |  |  | -2 | 65 |  |  |
| O=C(O)CN(C(=O)CCc1nc2c(F)c(F)cc(F)c2s1)c1ccccc1 |  |  | 80 | 54 |  |  |
| O=C(O)Cc1cc(Cl)cc(Cc2nc3c(F)c(F)cc(F)c3s2)c1 | 7.8 | 0.46 |  |  | 7 |  |

Reference: ChEMBL document CHEMBL1130466, “Benzothiazol-2-ylcarboxylic acids with diverse spacers: A novel class of potent, orally active aldose reductase inhibitors” (Bioorg Med Chem Lett, 1997)
